From US10675267B2, “Methods for detection and eradication of myeloid leukemia stem cells” (priority 2015, dated 2020)
Entries after “also recorded” stand apart in the source; their conditions may differ.

Tested on: AML-37 human LSC engrafted in Rag2−/−γc−/− mice
Test: sAML PRIMAGRAFT model AML-37: FACS engraftment analysis and serial transplantation
Assay type: in vivo, mouse
Experimental: All animal studies were performed in accordance with UCSD and NIH-equivalent ethical guidelines and were approved by the Institutional Animal Care and Use Committee (IACUC protocol # S06015). For all in vivo experiments, animals of both genders were utilized. Three AML PRIMAGRAFT™ models were established by transplanting AML LSC-enriched cell fractions (either CD34-selected or FACS-purified stem or progenitor cell fractions from primary patient samples) into immunocompromised Rag2^−/−γc^−/−[20] or NOD/SCID-IL2RG mice (Jackson Laboratory) constitutively expressing human SCF, GM-CSF and IL-3 (NSGS) (FIGS. 8A-8D). For all transplantations into Rag2^−/−γc^−/− animals, neonatal mice were transplanted with human cells intrahepatically as previously described, and for all transplantations into NSGS animals, sublethally irradiated (300 Rad) adult (6-8 weeks old) mice were transplanted intravenously with 1-2×10^5 CD34^+ human cells.
For in vivo treatments, a 10 mg/mL stock solution of 17S-FD-895 solubilized in DMSO was used. After randomization, AML-engrafted mice were dosed intravenously with 17S-FD-895 (5-10 mg/kg) or vehicle (for AML-08, vehicle control=15% DMSO in PBS; for AML-37, vehicle control=20% DMSO in PBS) three times over a two-week period, with the first dose given on day 1, the second on day 7, and the third on day 14. For preparation of RNA from human LSC-enriched populations, single cell suspensions from spleen and bone marrow were CD34 double-selected (over two LS selection columns, Miltenyi) and 1-2×10^5 cells were collected in lysis buffer or pooled according to treatment group for serial transplantation assays.
Mice transplanted with 1-2×10^5 CD34^+ AML LSC-enriched fractions or no-transplant controls were screened for human hematopoietic cell engraftment (CD45^+ cells) in peripheral blood by FACS starting at 7-10 weeks post transplant. At 7-28 weeks post-transplant (7-36 weeks old), mice were euthanized, and peripheral blood and single cell suspensions of hematopoietic organs were analyzed for human cell engraftment by FACS. Total cell suspensions from bone marrow and spleen were either transplanted immediately or CD34-selected for transplant into secondary recipient mice (1-2×10^5 cells per animal) to expand the cells in vivo. […] Secondary recipient mice were euthanized after 8-23 weeks, and cell suspensions from bone marrow and spleen were CD34-selected for transplant into tertiary recipients for 17S-FD-895 treatment.
The 17S-FD-895 dosing regimen was selected as the maximum number of doses possible for the treatment of three experimental groups with the amount of synthesized compound that was available, and is consistent with weekly IV dosing regimens used in clinical trials of spliceosome inhibitory compounds in patients with solid tumors. Animals were euthanized within two hours after delivery of the final dose of 17S-FD-895, and peripheral blood, spleens and bone marrows were collected for analysis of total human cell and stem and progenitor cell engraftment, and for RNA extraction for splice isoform-specific qRT-PCR.
Flow cytometric analysis was performed on single cell suspensions from each hematopoietic tissue essentially as for primary patient samples, and frequencies of total live human CD45^+ cells, and CD45^+CD34^+CD38^− Lin^− (stem) and CD45^+CD34^+CD38^+ Lin^− (progenitor) cells were determined in each tissue. Analysis of progenitor cell subpopulations was performed for AML-37, with GMP identified as CD123^+CD45RA^+, CMP as […] and megakaryocyte-erythroid progenitors (MEP) as […]. Inclusion/exclusion criteria were pre-established based on minimum CD45^+ cell engraftment rates of 1% in peripheral blood, as determined by previous PRIMAGRAFT™ experiments. […]

CC[C@H](OC)[C@@H](C)[C@H]1O[C@@H]1[C@@H](O)[C@H](C)/C=C/C=C(\C)[C@H]1OC(=O)C[C@H](O)CC[C@@](C)(O)[C@@H](OC(C)=O)/C=C/[C@@H]1C (stereo in doubt) [Formula 17S-FD-895, 17S-FD-895]
common myeloid progenitor (CMP) frequency (AML-37, 5 or 10 mg/kg): slight increase | GMP frequency (AML-37, 5 or 10 mg/kg, hematopoietic tissues): reduced GMP frequency; also recorded: significantly reduced | human leukemic burden in serial transplant recipients (recipients of CD34+ cells from 10 mg/kg group versus vehicle controls): marked reduction; also recorded: marked decrease | reduction of human stem cells (CD45+CD34+CD38− Lin−) (spleens, 10 mg/kg group versus vehicle controls, p<0.05): 68% | reduction of human progenitor cells (CD45+CD34+CD38+ Lin−) (spleens, 10 mg/kg group versus vehicle controls, p=0.08): 80% | human HSPC frequency (spleens, 10 mg/kg versus vehicle): decrease in human HSPC frequency
